Data from US10245229B2, “Pulmonary delivery of mRNA to non-lung target cells” (Shire Human Genetic Therapies, Inc., priority 2012, dated 2019).

Test system: non-lung cells
Experiment: Comparison of delivery vehicles: luminescence in non-lung cells following pulmonary delivery
Assay type: in vivo
Settings: following pulmonary delivery of FFL mRNA with the delivery vehicle

CCCCCCCC/C=C\CCCCCCCC(=O)OCC(C[N+](C)(C)C)OC(=O)CCCCCCC/C=C\CCCCCCCC (stereo not shown) [DOTAP, 1,2-Dioleoyl-3-Trimethylammonium-Propane]
Luminescence / protein production in non-lung cells: did not show luminescence in non-lung cells
